The values that follow come from ChEMBL document CHEMBL1138057, “Synthesis and structure-activity relationships of N-{3-[2-(4-alkoxyphenoxy)thiazol-5-yl]-1- methylprop-2-ynyl}carboxy derivatives as selective acetyl-CoA carboxylase 2 inhibitors” (J Med Chem, 2006).

Each structure is given as a SMILES string. The source made the active and inactive calls. The calls are words filed in the database; no cut-off is given here.

One data set deals with Acetyl-CoA carboxylase 2 (Homo sapiens, UniProt O00763). The data set is described as follows: Inhibition of human recombinant ACC2 expressed in baculovirus/sf9 system.
A further data set concerns the target Acetyl-CoA carboxylase 1 (Homo sapiens, UniProt Q13085). The data set is described as follows: Inhibition of human recombinant ACC1 expressed in HEK293 cells. Format: cell-based.
Data set [1] deals with Rattus norvegicus. In words: Drug concentration in Sprague-Dawley rat plasma at 10 mg/kg. Format: ADME, organism-based. Also noted: dose 10 mg/kg. The settings on record: in vivo.
Data set [2] relates to Rattus norvegicus. In words: Reduction of mCoA level in Sprague-Dawley rat muscle at 10 mg/kg, po. Format: functional.
Data set [3] relates to Rattus norvegicus. In words: Reduction of mCoA level in Sprague-Dawley rat muscle at 50 mg/kg, po. It counts as functional.
Data set [4] deals with Rattus norvegicus. In words: Drug concentration in Sprague-Dawley rat plasma at 50 mg/kg. Format: ADME, organism-based. Also noted: dose 50 mg/kg. The following applies: in vivo.
The subject of data set [5] is Rattus norvegicus. In words: Reduction of mCoA level in Sprague-Dawley rat liver at 50 mg/kg, po. It counts as functional.
In data set [6] the test system is Rattus norvegicus. In words: Reduction of mCoA level in Sprague-Dawley rat liver at 10 mg/kg, po. It counts as functional, organism-based. Also noted: dose 10 mg/kg.
The nature of data set [7]: Volume of distribution in rat at 5 mg/kg. It counts as ADME, organism-based. Also noted: dose 5 mg/kg. The settings on record: in vivo, read-out: Vss.
The nature of data set [8]: Tmax in rat at 5 mg/kg. More on the design: dose 5 mg/kg. It counts as ADME, organism-based. The settings on record: in vivo.
Data set [9] in a line: Plasma clearance in rat at 5 mg/kg. More on the design: dose 5 mg/kg. Format: ADME, organism-based.
Data set [10] in a line: Bioavailability in rat at 5 mg/kg. The settings on record: in vivo. It counts as ADME, organism-based.
The nature of data set [11]: Half life in rat at 5 mg/kg, po. Format: ADME, organism-based. Also noted: dose 5 mg/kg, route oral. The settings on record: in vivo.
A short description of data set [12]: Cmax in rat at 5 mg/kg. It counts as ADME, organism-based. The settings on record: in vivo. Also noted: dose 5 mg/kg.
The nature of data set [13]: AUC in rat at 5 mg/kg, po. Format: ADME, organism-based. Also noted: dose 5 mg/kg, route oral. The following applies: plasma.

Chain of Acetyl-CoA carboxylase 2 (O00763 whole entry): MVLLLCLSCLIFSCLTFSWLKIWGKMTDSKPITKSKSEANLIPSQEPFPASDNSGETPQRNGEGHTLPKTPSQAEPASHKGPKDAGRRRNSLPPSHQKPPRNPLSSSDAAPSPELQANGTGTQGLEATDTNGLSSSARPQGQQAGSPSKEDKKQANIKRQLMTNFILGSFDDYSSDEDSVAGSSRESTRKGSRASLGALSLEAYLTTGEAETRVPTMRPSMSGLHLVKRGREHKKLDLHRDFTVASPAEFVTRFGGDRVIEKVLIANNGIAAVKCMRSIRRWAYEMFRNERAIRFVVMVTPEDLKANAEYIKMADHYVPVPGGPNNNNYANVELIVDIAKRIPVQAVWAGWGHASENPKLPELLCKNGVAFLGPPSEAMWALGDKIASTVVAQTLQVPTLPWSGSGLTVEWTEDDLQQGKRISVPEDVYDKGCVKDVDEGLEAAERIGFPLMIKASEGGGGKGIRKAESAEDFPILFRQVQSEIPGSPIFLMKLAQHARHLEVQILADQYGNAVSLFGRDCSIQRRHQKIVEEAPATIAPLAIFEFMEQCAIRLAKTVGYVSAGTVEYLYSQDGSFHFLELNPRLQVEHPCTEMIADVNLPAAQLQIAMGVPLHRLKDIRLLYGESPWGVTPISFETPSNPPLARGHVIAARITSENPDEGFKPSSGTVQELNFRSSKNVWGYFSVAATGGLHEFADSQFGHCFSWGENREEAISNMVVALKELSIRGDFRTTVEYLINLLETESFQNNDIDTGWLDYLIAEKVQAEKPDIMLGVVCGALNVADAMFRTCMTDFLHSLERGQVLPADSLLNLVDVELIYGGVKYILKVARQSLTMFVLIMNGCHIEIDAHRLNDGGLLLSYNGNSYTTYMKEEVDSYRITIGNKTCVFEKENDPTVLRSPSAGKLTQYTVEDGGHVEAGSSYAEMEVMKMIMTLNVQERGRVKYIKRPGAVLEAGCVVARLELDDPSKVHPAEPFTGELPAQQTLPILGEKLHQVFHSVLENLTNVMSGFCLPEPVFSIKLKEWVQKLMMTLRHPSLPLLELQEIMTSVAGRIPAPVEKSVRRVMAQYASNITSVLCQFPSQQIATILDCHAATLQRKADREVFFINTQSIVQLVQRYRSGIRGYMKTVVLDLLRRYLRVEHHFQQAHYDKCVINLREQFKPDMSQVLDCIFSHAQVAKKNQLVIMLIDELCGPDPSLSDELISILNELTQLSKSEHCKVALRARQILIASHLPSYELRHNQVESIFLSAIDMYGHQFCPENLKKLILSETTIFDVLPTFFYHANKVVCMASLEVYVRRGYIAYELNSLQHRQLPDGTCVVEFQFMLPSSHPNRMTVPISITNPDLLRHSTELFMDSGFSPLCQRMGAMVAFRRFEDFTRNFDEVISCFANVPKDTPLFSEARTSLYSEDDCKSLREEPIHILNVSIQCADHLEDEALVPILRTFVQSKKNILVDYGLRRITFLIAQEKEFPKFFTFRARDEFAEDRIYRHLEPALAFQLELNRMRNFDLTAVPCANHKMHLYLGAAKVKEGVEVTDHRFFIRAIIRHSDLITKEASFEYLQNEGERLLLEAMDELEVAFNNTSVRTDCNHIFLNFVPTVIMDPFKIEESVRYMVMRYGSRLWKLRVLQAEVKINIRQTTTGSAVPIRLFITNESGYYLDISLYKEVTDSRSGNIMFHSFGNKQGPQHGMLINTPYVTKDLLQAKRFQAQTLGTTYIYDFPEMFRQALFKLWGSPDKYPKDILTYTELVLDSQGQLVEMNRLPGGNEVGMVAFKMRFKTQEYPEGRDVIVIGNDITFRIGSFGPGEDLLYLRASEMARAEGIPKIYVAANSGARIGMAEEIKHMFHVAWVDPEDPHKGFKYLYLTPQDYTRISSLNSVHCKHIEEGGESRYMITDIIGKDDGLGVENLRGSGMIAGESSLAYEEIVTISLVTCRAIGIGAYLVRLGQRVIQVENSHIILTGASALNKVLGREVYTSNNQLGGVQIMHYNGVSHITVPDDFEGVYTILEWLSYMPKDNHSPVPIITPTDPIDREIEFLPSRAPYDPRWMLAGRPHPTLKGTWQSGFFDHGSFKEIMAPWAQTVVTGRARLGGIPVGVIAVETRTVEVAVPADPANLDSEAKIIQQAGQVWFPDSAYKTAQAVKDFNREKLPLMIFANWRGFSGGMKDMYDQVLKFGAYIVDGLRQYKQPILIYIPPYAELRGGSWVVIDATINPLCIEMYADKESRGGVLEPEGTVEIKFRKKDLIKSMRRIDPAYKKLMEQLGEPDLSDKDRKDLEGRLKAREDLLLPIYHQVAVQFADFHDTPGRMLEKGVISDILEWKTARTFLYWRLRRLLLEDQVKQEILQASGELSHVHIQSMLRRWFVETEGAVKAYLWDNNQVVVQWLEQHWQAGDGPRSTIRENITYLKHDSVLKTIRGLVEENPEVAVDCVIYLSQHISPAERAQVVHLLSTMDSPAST

Regarding `CNC(=O)NC(C)C#Cc1cnc(Oc2ccc(OC(C)C)cc2)s1` (stereo not drawn), the IC50 at Acetyl-CoA carboxylase 2 was 0.03 µM; on Acetyl-CoA carboxylase 1 it was over 30 µM.

Take `CC(=O)NC(C)C#Cc1cnc(Oc2ccc(SC(C)C)cc2)s1` (stereo not drawn): the values for the IC50 at Acetyl-CoA carboxylase 2 and at Acetyl-CoA carboxylase 1 were 0.055 µM and 0.37 µM, respectively.

As for `COC(=O)N[C@H](C)C#Cc1cnc(Oc2ccc(OC(C)C)cc2)s1`, the values for the IC50 at Acetyl-CoA carboxylase 2 and on Acetyl-CoA carboxylase 1 were 1.51 µM and over 30 µM, respectively. Moreover, the values for the Cp in the data set on Rattus norvegicus [1] and in the data set with Rattus norvegicus [4] were 1.33 µg/mL and 5.33 µg/mL, respectively. In addition, the outcome with Rattus norvegicus [2] (Muscle tissue), in the data set on Rattus norvegicus [3] (Muscle tissue), with Rattus norvegicus [5] and in the data set with Rattus norvegicus [6] was inactive.

Turning to `CC(=O)NC(C)C#Cc1cnc(Sc2ccc(OC(C)C)cc2)s1` (stereo not drawn), the IC50 on Acetyl-CoA carboxylase 2 was 0.069 µM; at Acetyl-CoA carboxylase 1 it was over 30 µM.

In the case of `CC(=O)NC(C)C#Cc1cnc(Oc2ccc(C(C)C)cc2)s1` (stereo not drawn), the IC50 at Acetyl-CoA carboxylase 2 is over 30 µM; on Acetyl-CoA carboxylase 1, 1.25 µM.

On to `CC(=O)NC(C)C#Cc1ccc(Oc2ccc(OC(C)C)cc2)cc1` (stereo not drawn), for which the IC50 on Acetyl-CoA carboxylase 2 worked out at 0.006 µM; on Acetyl-CoA carboxylase 1, 0.029 µM.

Regarding `CC(=O)NC(C)C#Cc1csc(Oc2ccc(OC(C)C)cc2)n1` (stereo not drawn), the IC50 at Acetyl-CoA carboxylase 2 and at Acetyl-CoA carboxylase 1 was over 30 µM in each case.

With `COC(=O)N[C@@H](C)C#Cc1cnc(Oc2ccc(OC(C)C)cc2)s1`, the IC50 on Acetyl-CoA carboxylase 2 is 0.038 µM; at Acetyl-CoA carboxylase 1 it was over 30 µM. Besides, the Cp in the data set with Rattus norvegicus [1] turned out to be 1.54 µg/mL; in the data set with Rattus norvegicus [4], 4.9 µg/mL. Also, the values for the Activity in the data set with Rattus norvegicus [2], with Rattus norvegicus [3] and with Rattus norvegicus [5] were 36%, 54% and 26%, respectively.

With `CC(=O)NC(C)C#Cc1cnc(Oc2ccc(OC(C)C)cc2)s1` (stereo not drawn), the values for the IC50 on Acetyl-CoA carboxylase 2 and on Acetyl-CoA carboxylase 1 were 0.019 µM and over 30 µM, respectively.

Turning to `CC(C#Cc1cnc(Oc2ccc(Oc3ccccc3)cc2)s1)NC(N)=O` (stereo not drawn), the IC50 at Acetyl-CoA carboxylase 2 was 0.026 µM; at Acetyl-CoA carboxylase 1, over 30 µM.

Take `CC(=O)NC(C)C#Cc1cnc(Oc2ccc(NC(C)C)cc2)s1` (stereo not drawn): the IC50 on Acetyl-CoA carboxylase 2 is 0.15 µM; on Acetyl-CoA carboxylase 1, over 30 µM.

With `CC(N)C#Cc1cnc(Oc2ccc(Oc3ccccc3)cc2)s1` (stereo not drawn), the IC50 is 2.42 µM at Acetyl-CoA carboxylase 2 and over 30 µM at Acetyl-CoA carboxylase 1.

With `O=C(c1c2ccccc2cc2ccccc12)N1CCC(N2CCC[C@@H](C(=O)N3CCOCC3)C2)CC1`, the values for the IC50 at Acetyl-CoA carboxylase 2 and at Acetyl-CoA carboxylase 1 were 0.038 µM and 0.41 µM, respectively.

As to `CC(=O)NC(C)C#Cc1cnc(Oc2ccc(OC(C)C)nc2)s1` (stereo not drawn), the IC50 was found to be 0.015 µM on Acetyl-CoA carboxylase 2 and 0.39 µM on Acetyl-CoA carboxylase 1.

Take `CC(=O)NC(C)C#Cc1cnc(Oc2ccc(Oc3ccccc3)cc2)s1` (stereo not drawn): the IC50 came out at 0.011 µM at Acetyl-CoA carboxylase 2 and 0.26 µM on Acetyl-CoA carboxylase 1.

On to `CC(C#Cc1cnc(Oc2ccc(Oc3ccccc3)cc2)s1)N(O)C(N)=O` (stereo not drawn), for which the IC50 at Acetyl-CoA carboxylase 2 is 0.08 µM; at Acetyl-CoA carboxylase 1 it was 1 µM.

On to `COC(=O)NC(C)C#Cc1cnc(Oc2ccc(OC(C)C)cc2)s1` (stereo not drawn), for which the IC50 was 0.096 µM on Acetyl-CoA carboxylase 2 and over 30 µM at Acetyl-CoA carboxylase 1. The Vd in data set [7] was 5 L/kg. In [8], the Tmax stood at 2 h. The clearance in [9] is 0.2 L/h/kg. The bioavailability in data set [10] was determined as 80.4%. Moreover, in [11], the half-life is over 12 h. In addition, the Cmax in [12] worked out at 0.9 µg/mL. The AUC in [13] worked out at 18.9 µg·h/mL.

On to `CC(=O)NC(C#Cc1cnc(Oc2ccc(OC(C)C)cc2)s1)C1CC1` (stereo not drawn), for which the IC50 at Acetyl-CoA carboxylase 2 is 0.84 µM; on Acetyl-CoA carboxylase 1, over 30 µM.

In the case of `CC(O)C#Cc1cnc(Oc2ccc(Oc3ccccc3)cc2)s1` (stereo not drawn), the IC50 is 0.6 µM on Acetyl-CoA carboxylase 2 and over 30 µM on Acetyl-CoA carboxylase 1.

Turning to `CC(=O)NCC#Cc1cnc(Oc2ccc(OC(C)C)cc2)s1`, the IC50 at Acetyl-CoA carboxylase 2 is 1.73 µM; at Acetyl-CoA carboxylase 1 it was over 30 µM.
